Assay results from patent US9708314B2, “Heterocyclic amide compound” (NISSAN CHEMICAL INDUSTRIES, LTD., priority 2013, dated 2017).

What was measured:
Format in all cases: in vivo
Alopecurus myosuroides = assay: Test Example 4: herbicidal effect by application to foliage (diluvial soil, plastic box); conditions: for J: herbicidal effect on Alopecurus myosuroides: application herbicide amount 320 g/ha; for J (Alopecurus myosuroides) herbicidal effect grade: foliage application
Outline: (§1)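 Emulsion-formulated compound, diluted to a predetermined g/ha dose, applied by small sprayer to leaves and stems of 14-day-old seedlings grown in sterilized diluvial soil. Effect rated on 0–5 herbicidal-ratio scale three weeks on.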

Veronica persica = assay: as above; conditions: for R: herbicidal effect on Veronica persica: application to foliage, application herbicide amount 320 g/ha; for R (Veronica persica) herbicidal effect grade: foliage application, 320 g/ha
Outline: as §1

Galium spurium = assay: as above; conditions: for Q: herbicidal effect on Galium spurium: application herbicide amount 320 g/ha; for Q (Galium spurium) herbicidal effect grade: foliage application
Outline: as §1

Stellaria media = assay: as above; conditions: for P: herbicidal effect on Stellaria media: application herbicide amount 320 g/ha; for P (Stellaria media) herbicidal effect grade: foliage application
Outline: as §1

Setaria viridis = assay: as above; conditions: for G: herbicidal effect on Setaria viridis: application herbicide amount 320 g/ha; for G (Setaria viridis) herbicidal effect grade: foliage application
Outline: as §1

Digitaria ciliaris = assay: as above; conditions: for F: herbicidal effect on Digitaria ciliaris: application herbicide amount 320 g/ha; for F (Digitaria ciliaris) herbicidal effect grade: foliage application
Outline: as §1

Cyperus difformis = assay: Test Example 3: herbicidal effect by application to foliage (Wagner pot, water depth 0.1-0.5 cm); conditions: Nineteenth Table, application to foliage
Outline: (§2)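 A small sprayer delivered the diluted emulsion uniformly to foliage at the chosen rate in g/ha, 14 days after sowing in Wagner pots held at 25–30 °C. Outcome: 0–5 herbicidal-ratio score read three weeks post-treatment.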

[1] = test system: Echinochloa crus-galli var. crus-galli; assay: as above; conditions: Nineteenth Table, application to foliage
Outline: as §2

Leptochloa chinensis = assay: as above; conditions: Nineteenth Table, application to foliage
Outline: as §2

[2] = application herbicide amount 320 g/ha
[3] = application herbicide amount 200 g/ha
[4] = application to foliage, 320 g/ha

| Compound | J: herbicidal effect on Alopecurus myosuroides (Alopecurus myosuroides; application to foliage) | R: herbicidal effect on Veronica persica (Veronica persica) | Q: herbicidal effect on Galium spurium (Galium spurium; application to foliage) | P: herbicidal effect on Stellaria media (Stellaria media; application to foliage) | G: herbicidal effect on Setaria viridis (Setaria viridis; application to foliage) | F: herbicidal effect on Digitaria ciliaris (Digitaria ciliaris; application to foliage) | E (herbicidal effect grade) (Cyperus difformis; [2]) | H (herbicidal effect grade) [1, 2] | D (herbicidal effect grade) (Leptochloa chinensis; [2]) | J (Alopecurus myosuroides) herbicidal effect grade (Alopecurus myosuroides; 320 g/ha) | R (Veronica persica) herbicidal effect grade (Veronica persica) | Q (Galium spurium) herbicidal effect grade (Galium spurium; 320 g/ha) | P (Stellaria media) herbicidal effect grade (Stellaria media; 320 g/ha) | G (Setaria viridis) herbicidal effect grade (Setaria viridis; 320 g/ha) | F (Digitaria ciliaris) herbicidal effect grade (Digitaria ciliaris; 320 g/ha) | also measured |
| --- | --- | --- | --- | --- | --- | --- | --- | --- | --- | --- | --- | --- | --- | --- | --- | --- |
| Cc1nnc(NC(=O)c2ccc(C(F)(F)F)n3c(SC4CCCC4)nnc23)o1 [1-154] | 0 (Herbicidal ratio of 5% or less (almost no effect)) | 0 (Herbicidal ratio of 5% or less (almost no effect)) | 0 (Herbicidal ratio of 5% or less (almost no effect)) | 4 (Herbicidal ratio of 70% or more and less than 90%) | 2 (Herbicidal ratio of 20% or more and less than 40%) | 3 (Herbicidal ratio of 40% or more and less than 70%) | 4 (Herbicidal ratio of 70% or more and less than 90%) | 3 (Herbicidal ratio of 40% or more and less than 70%) | 2 (Herbicidal ratio of 20% or more and less than 40%) | – | – | – | – | – | – | – |
| Cc1nnc(NC(=O)c2ccc(C(F)(F)F)n3c(SCc4ccc(Cl)nc4)nnc23)o1 [1-156] | 1 (Herbicidal ratio of 5% or more and less than 20%) | 3 (Herbicidal ratio of 40% or more and less than 70%) | 1 (Herbicidal ratio of 5% or more and less than 20%) | 4 (Herbicidal ratio of 70% or more and less than 90%) | 1 (Herbicidal ratio of 5% or more and less than 20%) | 2 (Herbicidal ratio of 20% or more and less than 40%) | 2 (Herbicidal ratio of 20% or more and less than 40%) | 3 (Herbicidal ratio of 40% or more and less than 70%) | 2 (Herbicidal ratio of 20% or more and less than 40%) | – | – | – | – | – | – | – |
| Cn1nnnc1NC(=O)c1ccc(C(F)(F)F)n2cnnc12 [2-001] | 0 (Herbicidal ratio of 5% or less (almost no effect)) | 5 (Herbicidal ratio of 90% or more (almost completely withered)) | 4 (Herbicidal ratio of 70% or more and less than 90%) | 5 (Herbicidal ratio of 90% or more (almost completely withered)) | 0 (Herbicidal ratio of 5% or less (almost no effect)) | 3 (Herbicidal ratio of 40% or more and less than 70%) | 3 (Herbicidal ratio of 40% or more and less than 70%) | 4 (Herbicidal ratio of 70% or more and less than 90%) | 4 (Herbicidal ratio of 70% or more and less than 90%) | – | – | – | – | – | – | – |
| Cc1nnc2c(C(=O)Nc3nnnn3C)ccc(C(F)(F)F)n12 [2-002] | 1 (Herbicidal ratio of 5% or more and less than 20%) | 5 (Herbicidal ratio of 90% or more (almost completely withered)) | 4 (Herbicidal ratio of 70% or more and less than 90%) | 5 (Herbicidal ratio of 90% or more (almost completely withered)) | 3 (Herbicidal ratio of 40% or more and less than 70%) | 4 (Herbicidal ratio of 70% or more and less than 90%) | 2 (Herbicidal ratio of 20% or more and less than 40%) | 5 (Herbicidal ratio of 90% or more (almost completely withered)) | 4 (Herbicidal ratio of 70% or more and less than 90%) | – | – | – | – | – | – | – |
| CC(C)c1nnc2c(C(=O)Nc3nnnn3C)ccc(C(F)(F)F)n12 [2-003] | 3 (Herbicidal ratio of 40% or more and less than 70%) | 5 (Herbicidal ratio of 90% or more (almost completely withered)) | 4 (Herbicidal ratio of 70% or more and less than 90%) | 5 (Herbicidal ratio of 90% or more (almost completely withered)) | 5 (Herbicidal ratio of 90% or more (almost completely withered)) | 5 (Herbicidal ratio of 90% or more (almost completely withered)) | – | – | – | – | – | – | – | – | – | E (herbicidal effect grade) (Cyperus difformis; [3]): 5 (Herbicidal ratio of 90% or more (almost completely withered)); H (herbicidal effect grade) [1, 3]: 5 (Herbicidal ratio of 90% or more (almost completely withered)); D (herbicidal effect grade) (Leptochloa chinensis; [3]): 5 (Herbicidal ratio of 90% or more (almost completely withered)) |
| Cn1nnnc1NC(=O)c1ccc(C(F)(F)F)n2c(CS(C)(=O)=O)nnc12 [2-034] | – | – | – | – | – | – | 5 (Herbicidal ratio of 90% or more (almost completely withered)) | 5 (Herbicidal ratio of 90% or more (almost completely withered)) | 5 (Herbicidal ratio of 90% or more (almost completely withered)) | 5 (Herbicidal ratio of 90% or more (almost completely withered)) | 5 (Herbicidal ratio of 90% or more (almost completely withered)) | 5 (Herbicidal ratio of 90% or more (almost completely withered)) | 5 (Herbicidal ratio of 90% or more (almost completely withered)) | 5 (Herbicidal ratio of 90% or more (almost completely withered)) | 5 (Herbicidal ratio of 90% or more (almost completely withered)) | – |
| Cn1nnnc1NC(=O)c1ccc(C(F)(F)F)n2c(C[S+]([O-])CC(F)(F)F)nnc12 (stereo not drawn) [2-035] | – | – | – | – | – | – | 4 (Herbicidal ratio of 70% or more and less than 90%) | 5 (Herbicidal ratio of 90% or more (almost completely withered)) | 5 (Herbicidal ratio of 90% or more (almost completely withered)) | 3 (Herbicidal ratio of 40% or more and less than 70%) | 5 (Herbicidal ratio of 90% or more (almost completely withered)) | 2 (Herbicidal ratio of 20% or more and less than 40%) | 5 (Herbicidal ratio of 90% or more (almost completely withered)) | 5 (Herbicidal ratio of 90% or more (almost completely withered)) | 5 (Herbicidal ratio of 90% or more (almost completely withered)) | – |
| CC(C)c1nnc2c(C(=S)Nc3nnnn3C)ccc(C(F)(F)F)n12 [2-039, 3-Isopropyl-N-(1-methyl-1H-tetrazol-5-yl)-5-(trifluoromethyl)-[1,2,4]triazolo[4,3-a]pyridine-8-carbothioamide] | – | – | – | – | – | – | 5 (Herbicidal ratio of 90% or more (almost completely withered)) | 5 (Herbicidal ratio of 90% or more (almost completely withered)) | – | 3 (Herbicidal ratio of 40% or more and less than 70%) | 5 (Herbicidal ratio of 90% or more (almost completely withered)) | 4 (Herbicidal ratio of 70% or more and less than 90%) | 5 (Herbicidal ratio of 90% or more (almost completely withered)) | 5 (Herbicidal ratio of 90% or more (almost completely withered)) | 5 (Herbicidal ratio of 90% or more (almost completely withered)) | – |
| CCOC(=O)Cc1nnc2c(C(=O)Nc3nnnn3C)ccc(C(F)(F)F)n12 [2-040] | – | – | – | – | – | – | 5 (Herbicidal ratio of 90% or more (almost completely withered)) | 4 (Herbicidal ratio of 70% or more and less than 90%) | – | 1 (Herbicidal ratio of 5% or more and less than 20%) | 5 (Herbicidal ratio of 90% or more (almost completely withered)) | 4 (Herbicidal ratio of 70% or more and less than 90%) | 5 (Herbicidal ratio of 90% or more (almost completely withered)) | 3 (Herbicidal ratio of 40% or more and less than 70%) | 5 (Herbicidal ratio of 90% or more (almost completely withered)) | – |
| Cn1nnnc1NC(=O)c1ccc(C(F)(F)F)n2c(SCC(F)(F)F)nnc12 [2-087] | – | – | – | – | – | – | 5 (Herbicidal ratio of 90% or more (almost completely withered)) | 5 (Herbicidal ratio of 90% or more (almost completely withered)) | 5 (Herbicidal ratio of 90% or more (almost completely withered)) | – | – | – | – | – | – | herbicidal effect, J (Alopecurus myosuroides) (Alopecurus myosuroides; [4]): 3 (Herbicidal ratio of 40% or more and less than 70%); herbicidal effect, Q (Galium spurium) (Galium spurium; [4]): 3 (Herbicidal ratio of 40% or more and less than 70%); herbicidal effect, P (Stellaria media) (Stellaria media; [4]): 5 (Herbicidal ratio of 90% or more (almost completely withered)); herbicidal effect, G (Setaria viridis) (Setaria viridis; [4]): 4 (Herbicidal ratio of 70% or more and less than 90%); herbicidal effect, F (Digitaria ciliaris) (Digitaria ciliaris; [4]): 5 (Herbicidal ratio of 90% or more (almost completely withered)) |
